Laboratory results: ChEMBL document CHEMBL5376003, “Structure-Activity Relationship of FL118 Platform Position 7 Versus Position 9-Derived Compounds and Their Mechanism of Action and Antitumor Activity” (J Med Chem, 2023)
Calls of active or inactive are those of the source. The calls are words filed in the database; no cut-off is given here.

Legend:
[1] = system: A549; test: Growth inhibition of human A549 cells incubated for 48 hrs by MTT reagent based ELISA reader analysis; assay type: functional, cell-based; settings: A549, 48 h
[2] = system: HCT-116; test: Induction of apoptosis in human HCT-116 cells assessed as modulation of DDX42 mRNA expression at 10 to 500 nM incubated for 6 to 48 hrs by RNA analysis; assay type: functional, cell-based; settings: dose 10-500 nM, time 6-48 hrs
[3] = system: HCT-116; test: Induction of apoptosis in human HCT-116 cells assessed as upregulation of DDX5 mRNA expression at 500 nM incubated for 6 hrs by RNA analysis; assay type: functional, cell-based
[4] = system: HCT-116; test: Induction of apoptosis in human HCT-116 cells assessed as downregulation of AMPD3 gene expression at 10 to 500 nM incubated for 6 to 48 hrs by RNA analysis; assay type: functional, cell-based; settings: dose 10-500 nM, time 6-48 hrs
[5] = system: HepG2; test: Growth inhibition of human HepG2 cells incubated for 48 hrs by MTT reagent based ELISA reader analysis; assay type: functional, cell-based; settings: HepG2, 48 h
[6] = system: HCT-116; test: Induction of apoptosis in human HCT-116 cells assessed as upregulation of CDKN1A mRNA expression at 10 to 500 nM incubated for 6 to 48 hrs by RNA analysis; assay type: functional, cell-based; settings: dose 10-500 nM, time 6-48 hrs
[7] = system: HCT-116; test: Induction of apoptosis in human HCT-116 cells assessed as downregulation of NUDT15 gene expression at 10 to 500 nM incubated for 6 to 48 hrs by RNA analysis; assay type: functional, cell-based; settings: dose 10-500 nM, time 6-48 hrs
[8] = system: HCT-116; test: Induction of apoptosis in human HCT-116 cells assessed as downregulation of NT5C3A gene expression at 10 to 500 nM incubated for 6 to 48 hrs by RNA analysis; assay type: functional, cell-based; settings: dose 10-500 nM, time 6-48 hrs
[9] = system: HCT-116; test: Induction of apoptosis in human HCT-116 cells assessed as downregulation of NUP98 gene expression at 10 to 500 nM incubated for 6 to 48 hrs by RNA analysis; assay type: functional, cell-based; settings: dose 10-500 nM, time 6-48 hrs
[10] = system: HCT-116; test: Induction of apoptosis in human HCT-116 cells assessed as downregulation of NUP205 gene expression at 10 to 500 nM incubated for 6 to 48 hrs by RNA analysis; assay type: functional, cell-based; settings: dose 10-500 nM, time 6-48 hrs
[11] = system: HCT-116; test: Activation of innate immune response in human HCT-116 cells assessed as upregulation of IL-12RB2 gene expression at 10 to 500 nM incubated for 6 to 48 hrs by RNA analysis; assay type: functional, cell-based; settings: dose 10-500 nM, time 6-48 hrs
[12] = system: HCT-116; test: Induction of apoptosis in human HCT-116 cells assessed as increase in intracellular ROS level incubated for 48 hrs by DCFH-DA staining based fluorescence microscopy; assay type: functional, cell-based
[13] = system: HCT-116; test: Induction of apoptosis in human HCT-116 cells assessed as downregulation of RANBP2 gene expression at 10 to 500 nM incubated for 6 to 48 hrs by RNA analysis; assay type: functional, cell-based; settings: dose 10-500 nM, time 6-48 hrs
[14] = system: HCT-116; test: Induction of apoptosis in human HCT-116 cells assessed as modulation of DDX21 mRNA expression at 10 to 500 nM incubated for 6 to 48 hrs by RNA analysis; assay type: functional, cell-based; settings: dose 10-500 nM, time 6-48 hrs
[15] = system: HCT-116; test: Induction of apoptosis in human HCT-116 cells assessed as downregulation of NUP62 gene expression at 10 to 500 nM incubated for 6 to 48 hrs by RNA analysis; assay type: functional, cell-based; settings: dose 10-500 nM, time 6-48 hrs
[16] = system: HCT-116; test: Induction of apoptosis in human HCT-116 cells assessed as upregulation of USP11 mRNA expression at 10 to 500 nM incubated for 6 to 48 hrs by RNA analysis; assay type: functional, cell-based; settings: dose 10-500 nM, time 6-48 hrs
[17] = system: HCT-116; test: Induction of apoptosis in human HCT-116 cells assessed as downregulation of NUP85 gene expression at 10 to 500 nM incubated for 6 to 48 hrs by RNA analysis; assay type: functional, cell-based; settings: dose 10-500 nM, time 6-48 hrs
[18] = system: HCT-116; test: Inhibition of cell migration in human HCT-116 cells assessed as intercellular distance at 5 nM by inverted phase-contrast microscopic analysis (reference value: 2.5 +/- 0.7 millimeter); assay type: functional
[19] = system: HCT-116; test: Induction of apoptosis in human HCT-116 cells assessed as increase in intracellular ROS level at 10 to 1000 nM incubated for 4 to 8 hrs by DCFH-DA staining based fluorescence microscopy; assay type: functional, cell-based; settings: dose 10-1000 nM, time 4-8 hrs
[20] = system: HCT-116; test: Induction of apoptosis in human HCT-116 cells assessed as downregulation of TK1 gene expression at 10 to 500 nM incubated for 6 to 48 hrs by RNA analysis; assay type: functional, cell-based; settings: dose 10-500 nM, time 6-48 hrs
[21] = system: HCT-116; test: Induction of apoptosis in human HCT-116 cells assessed as downregulation of ADPGK gene expression at 10 to 500 nM incubated for 6 to 48 hrs by RNA analysis; assay type: functional, cell-based; settings: dose 10-500 nM, time 6-48 hrs
[22] = system: HCT-116; test: Induction of apoptosis in human HCT-116 cells assessed as downregulation of END1 gene expression at 10 to 500 nM incubated for 6 to 48 hrs by RNA analysis; assay type: functional, cell-based; settings: dose 10-500 nM, time 6-48 hrs
[23] = system: HCT-116; test: Induction of apoptosis in human HCT-116 cells assessed as downregulation of ACACA gene expression at 10 to 500 nM incubated for 6 to 48 hrs by RNA analysis; assay type: functional, cell-based; settings: dose 10-500 nM, time 6-48 hrs
[24] = system: HCT-116; test: Induction of apoptosis in human HCT-116 cells assessed as downregulation of NUP93 gene expression at 10 to 500 nM incubated for 6 to 48 hrs by RNA analysis; assay type: functional, cell-based; settings: dose 10-500 nM, time 6-48 hrs
[25] = system: HCT-116; test: Induction of apoptosis in human HCT-116 cells assessed as downregulation of PRKAR2B gene expression at 10 to 500 nM incubated for 6 to 48 hrs by RNA analysis; assay type: functional, cell-based; settings: dose 10-500 nM, time 6-48 hrs
[26] = system: HCT-116; test: Induction of apoptosis in human HCT-116 cells assessed as downregulation of DCTPP1 gene expression at 10 to 500 nM incubated for 6 to 48 hrs by RNA analysis; assay type: functional, cell-based; settings: dose 10-500 nM, time 6-48 hrs
[27] = system: HCT-116; test: Induction of apoptosis in human HCT-116 cells assessed as upregulation of POLR2A mRNA expression at 10 to 500 nM incubated for 6 to 48 hrs by RNA analysis; assay type: functional, cell-based; settings: dose 10-500 nM, time 6-48 hrs
[28] = system: HCT-116; test: Induction of apoptosis in human HCT-116 cells assessed as downregulation of NUP107 gene expression at 10 to 500 nM incubated for 6 to 48 hrs by RNA analysis; assay type: functional, cell-based; settings: dose 10-500 nM, time 6-48 hrs
[29] = system: HCT-116; test: Induction of apoptosis in human HCT-116 cells assessed as downregulation of TPR gene expression at 10 to 500 nM incubated for 6 to 48 hrs by RNA analysis; assay type: functional, cell-based; settings: dose 10-500 nM, time 6-48 hrs
[30] = system: HCT-116; test: Induction of apoptosis in human HCT-116 cells assessed as downregulation of AK8 gene expression at 10 to 500 nM incubated for 6 to 48 hrs by RNA analysis; assay type: functional, cell-based; settings: dose 10-500 nM, time 6-48 hrs
[31] = system: HCT-116; test: Induction of apoptosis in human HCT-116 cells assessed as downregulation of PRKACB gene expression at 10 to 500 nM incubated for 6 to 48 hrs by RNA analysis; assay type: functional, cell-based; settings: dose 10-500 nM, time 6-48 hrs
[32] = system: HeLa; test: Growth inhibition of human HeLa cells incubated for 48 hrs by MTT reagent based ELISA reader analysis; assay type: functional, cell-based
[33] = system: HCT-116; test: Induction of apoptosis in human HCT-116 cells assessed as downregulation of AAAS gene expression at 10 to 500 nM incubated for 6 to 48 hrs by RNA analysis; assay type: functional, cell-based; settings: dose 10-500 nM, time 6-48 hrs
[34] = system: PDX27454; test: Antitumor activity against human PDX27454 cells xenografted in SCID mouse model assessed as reduction in tumor volume at 8 mg/kg,po administrated once per week for 3 weeks; assay type: functional, organism-based

Row | SMILES | IC50 [1] [µM] | Activity [2] | Activity [3] | Activity [4] | IC50 [5] [µM] | Activity [6] | Activity [8] | Activity [9] | Activity [10] | Activity [11] | Activity [12] | Activity [13] | Activity [14] | Activity [15] | Activity [16] | Activity [17] | Activity [18] [mm] | Activity [19] | Activity [20] | Activity [22] | also measured
1 | CC[C@@]1(O)C(=O)OCc2c1cc1n(c2=O)Cc2cc3cc4c(cc3nc2-1)OCO4 | 0.0507 | Active | Active | Active | 0.0395 | Active | Active | Active | Active | Active | Dose-Dependent Effect | Active | Active | Active | Active | Active | 2.6 | Active | Active | Active | Activity [7]: Active; Activity [21]: Active; Activity [23]: Active; Activity [24]: Active; Activity [25]: Active; Activity [26]: Active; Activity [27]: Active; Activity [28]: Active; Activity [29]: Active; Activity [30]: Active; Activity [31]: Active; IC50 [32]: 0.0324 µM; Activity [33]: Active
2 | CC[C@@]1(O)C(=O)OCc2c1cc1n(c2=O)Cc2c-1nc1cc3c(cc1c2-c1ccc(OC)cc1)OCO3 | 0.0433 | Active | Active | Active | 0.064 | Active | Active | Active | Active | Active | Dose-Dependent Effect | Active | Active | Active | Active | Active | 2.8 | Active | Active | Active | Activity [7]: Active; Activity [34]: Active; Activity [21]: Active; Activity [23]: Active; Activity [24]: Active; Activity [25]: Active; Activity [26]: Active; Activity [27]: Active; Activity [28]: Active; Activity [29]: Active; Activity [30]: Active; Activity [31]: Active; IC50 [32]: 0.0483 µM; Activity [33]: Active
3 | CCc1ccc(-c2c3c(nc4cc5c(cc24)OCO5)-c2cc4c(c(=O)n2C3)COC(=O)[C@]4(O)CC)cc1 | 0.0572 | Active | Active | Active | 0.16 | Active | Active | Active | Active | Active | Dose-Dependent Effect | Active | Active | Active | Active | Active | 2.6 | Active | Active | Active | Activity [7]: Active; Activity [34]: Active; Activity [21]: Active; Activity [23]: Active; Activity [24]: Active; Activity [25]: Active; Activity [26]: Active; Activity [27]: Active; Activity [28]: Active; Activity [29]: Active; Activity [30]: Active; Activity [31]: Active; IC50 [32]: 0.0375 µM; Activity [33]: Active
4 | CC[C@@]1(O)C(=O)OCc2c1cc1n(c2=O)Cc2c-1nc1cc3c(cc1c2-c1cc(OC)cc(OC)c1)OCO3 | 0.0285 | Active | Active | Active | 0.118 | Active | Active | Active | Active | Active | Dose-Dependent Effect | Active | Active | Active | Active | Active | 2.7 | Active | Active | Active | Activity [34]: Active; Activity [23]: Active; Activity [24]: Active; Activity [25]: Active; Activity [26]: Active; Activity [27]: Active; Activity [28]: Active; Activity [29]: Active; Activity [30]: Active; IC50 [32]: < 0.0064 µM; Activity [33]: Active
